From BigSolDB 2.1

Cc1nnc(C(C)C)n1C1C[C@H]2CC[C@@H](C1)N2CC[C@H](NC(=O)C1CCC(F)(F)CC1)c1ccccc1 (stereo not given in full)
solubility (mole fraction)
Conditions | 278.2 K | 283.2 K | 288.2 K | 293.2 K | 298.2 K | 303.2 K | 308.2 K | 313.2 K | 318.2 K | 323.2 K
in 2-butanone | 0.000179 | 0.000262 | 0.000349 | 0.000491 | 0.000715 | 0.00102 | 0.00137 | 0.00193 | 0.00257 | 0.00351
in 2-pentanone | 0.000152 | 0.000224 | 0.000296 | 0.000418 | 0.000607 | 0.00087 | 0.00119 | 0.00168 | 0.00229 | 0.00316
in DMF | 3.5e-05 | 5.6e-05 | 7.6e-05 | 0.000112 | 0.000168 | 0.000244 | 0.000341 | 0.000507 | 0.000689 | 0.00101
in DMSO | 1.4e-05 | 2.4e-05 | 3.7e-05 | 5.6e-05 | 8.4e-05 | 0.000128 | 0.000173 | 0.000263 | 0.000358 | 0.00053
in ethanol | 0.000281 | 0.000404 | 0.00052 | 0.000716 | 0.00102 | 0.00144 | 0.00189 | 0.00263 | 0.00344 | 0.00461
in n-butanol | 0.0002 | 0.000293 | 0.000383 | 0.000533 | 0.000778 | 0.00112 | 0.0015 | 0.00212 | 0.00282 | 0.00387
in n-propanol | 0.00021 | 0.00031 | 0.00042 | 0.000609 | 0.00088 | 0.00124 | 0.00167 | 0.00235 | 0.00311 | 0.00421
in water | 6e-06 | 9e-06 | 1.2e-05 | 1.7e-05 | 2.5e-05 | 3.6e-05 | 4.8e-05 | 6.9e-05 | 9.2e-05 | 0.000129

O=C(Nc1c(Cl)cncc1Cl)c1ccc(OC(F)F)c(OCC2CC2)c1
solubility (mole fraction)
Conditions | 278.2 K | 283.2 K | 288.2 K | 293.2 K | 298.2 K | 303.2 K | 308.2 K | 313.2 K | 318.2 K | 323.2 K
in 2-butanone | 0.000102 | 0.00013 | 0.000165 | 0.000204 | 0.000264 | 0.000351 | 0.000448 | 0.000586 | 0.00081 | 0.00118
in 2-pentanone | 7.4e-05 | 9.8e-05 | 0.000114 | 0.00016 | 0.000219 | 0.000311 | 0.000402 | 0.000551 | 0.000756 | 0.00101
in DMF | 4e-06 | 6e-06 | 8e-06 | 1.3e-05 | 1.9e-05 | 3.1e-05 | 4.3e-05 | 6.1e-05 | 8.6e-05 | 0.000119
in DMSO | 3.3e-05 | 4.2e-05 | 6.3e-05 | 9e-05 | 0.000132 | 0.000171 | 0.000236 | 0.00033 | 0.000457 | 0.000629
in ethanol | 6.5e-05 | 8.8e-05 | 0.000106 | 0.00015 | 0.000208 | 0.000297 | 0.000387 | 0.000533 | 0.000734 | 0.000989
in n-butanol | 4.5e-05 | 6.2e-05 | 7.8e-05 | 0.000112 | 0.000156 | 0.000226 | 0.000296 | 0.000411 | 0.00057 | 0.000782
in n-propanol | 4.9e-05 | 7.6e-05 | 9.4e-05 | 0.000131 | 0.000175 | 0.000244 | 0.000328 | 0.000455 | 0.000625 | 0.000868
